Source: patent US20160347813A1, “GLUCAGON ANALOGUES” (Zealand Pharma A/S, priority 2011, published 2016)
Residues, ends and D or L forms follow the SMILES beside them.

Tests used:
human GLP-1-R = target: T1, human GLP-1-R (Homo sapiens, UniProt P43220); test: GLP-1 receptor efficacy assay (cAMP generation in HEK293 cells); format: cell-based; conditions: cAMP generation in HEK293 cells expressing GLP-1 receptor
T1 construct: The DNA encoding the Glucagon-R or the GLP-1-R was amplified by PCR using primers encoding terminal restriction sites for subcloning; expressed in transfected cells
T1 sequence (P43220 24-463): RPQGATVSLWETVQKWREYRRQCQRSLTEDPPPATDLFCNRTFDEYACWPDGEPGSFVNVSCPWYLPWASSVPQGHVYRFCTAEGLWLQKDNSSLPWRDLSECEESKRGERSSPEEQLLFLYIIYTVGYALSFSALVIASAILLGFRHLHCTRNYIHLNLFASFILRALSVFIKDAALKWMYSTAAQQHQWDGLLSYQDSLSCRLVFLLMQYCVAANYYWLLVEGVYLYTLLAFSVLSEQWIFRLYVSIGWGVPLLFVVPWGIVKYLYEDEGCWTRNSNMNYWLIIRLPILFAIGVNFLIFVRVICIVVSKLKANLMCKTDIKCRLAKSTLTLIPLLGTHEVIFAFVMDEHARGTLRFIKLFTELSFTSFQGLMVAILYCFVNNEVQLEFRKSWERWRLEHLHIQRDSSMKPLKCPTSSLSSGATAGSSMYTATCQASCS
Description: (§1) The DNA encoding the Glucagon-R or the GLP-1-R was amplified by PCR using primers encoding terminal restriction sites for subcloning. The 5′-end primers additionally encoded a near Kozak consensus sequence to ensure efficient translation. The fidelity of the DNA encoding the Glucagon-R and the GLP-1-R was confirmed by DNA sequencing. The PCR products encoding the Glucagon-R or the GLP-1-R were subcloned into a mammalian expression vector containing a neomycin (G418) resistance marker. The mammalian expression vectors encoding the Glucagon-R or the GLP-1-R were transfected into HEK293 cells by a standard calcium phosphate transfection method. 48 hr after transfection cells were seeded for limited dilution cloning and selected with 1 mg/ml G418 in the culture medium. Three weeks later 12 surviving colonies of Glucagon-R and GLP-1-R expressing cells were picked, propagated and tested in the Glucagon-R and GLP-1-R efficacy assays as described below. One Glucagon-R expressing clone and one GLP-1-R expressing clone were chosen for compound profiling.
(§2) On the day of analysis, growth medium was removed and the cells washed once with 200 μl Tyrode buffer. Cells were incubated in 100 μl Tyrode buffer containing increasing concentrations of test peptides, 100 μM IBMX, and 6 mM glucose for up 15 min at 37° C. The reaction was stopped by addition of 25 μl 0.5 M HCl and incubated on ice for 60 min. The cAMP content was estimated using the FlashPlate® cAMP kit from Perkin-Elmer according to manufacturer instructions. EC50 and relative efficacies compared to reference compounds (glucagon and GLP-1) were estimated by computer aided curve fitting.

human Glucagon-R = target: T2, human Glucagon-R (Homo sapiens, UniProt P47871); test: Glucagon receptor efficacy assay (cAMP generation in HEK293 cells); format: cell-based; conditions: cAMP generation in HEK293 cells expressing Glucagon receptor
T2 construct: The DNA encoding the Glucagon-R or the GLP-1-R was amplified by PCR using primers encoding terminal restriction sites for subcloning; expressed in transfected cells
T2 sequence (P47871 26-477): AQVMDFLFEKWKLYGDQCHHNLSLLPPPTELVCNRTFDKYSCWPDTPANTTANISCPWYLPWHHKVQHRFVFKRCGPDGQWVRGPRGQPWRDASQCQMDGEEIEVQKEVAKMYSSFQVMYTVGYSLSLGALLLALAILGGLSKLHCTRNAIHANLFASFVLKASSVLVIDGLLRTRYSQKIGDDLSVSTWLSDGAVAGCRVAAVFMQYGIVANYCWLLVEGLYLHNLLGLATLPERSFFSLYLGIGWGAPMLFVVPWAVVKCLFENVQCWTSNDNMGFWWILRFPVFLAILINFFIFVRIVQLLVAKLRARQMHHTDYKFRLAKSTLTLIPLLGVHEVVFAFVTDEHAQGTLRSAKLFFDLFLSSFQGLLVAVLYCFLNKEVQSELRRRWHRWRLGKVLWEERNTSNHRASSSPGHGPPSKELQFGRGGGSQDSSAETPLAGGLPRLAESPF
Description: as §1, §2

EC50 (human GLP-1-R)	EC50 (human Glucagon-R)	SMILES
0.06 nM	0.06 nM	CCCCCCCCCCCCCCCC(=O)N[C@@H](CCC(=O)NCCCC[C@H](NC(=O)[C@H](CCC(=O)O)NC(=O)[C@H](CC(=O)O)NC(=O)[C@H](CC(C)C)NC(=O)[C@H](Cc1ccc(O)cc1)NC(=O)[C@H](CCCNC(=N)N)NC(=O)[C@H](CO)NC(=O)[C@H](Cc1ccc(O)cc1)NC(=O)[C@H](CC(=O)O)NC(=O)[C@H](CO)NC(=O)[C@@H](NC(=O)[C@H](Cc1ccccc1)NC(=O)[C@@H](NC(=O)CNC(=O)[C@H](CCC(N)=O)NC(=O)[C@H](CO)NC(=O)[C@@H](N)Cc1c[nH]cn1)[C@@H](C)O)[C@@H](C)O)C(=O)N[C@@H](CCCNC(=N)N)C(=O)N[C@@H](C)C(=O)N[C@@H](CCCNC(=N)N)C(=O)N[C@@H](CC(=O)O)C(=O)N[C@@H](Cc1ccccc1)C(=O)N[C@H](C(=O)N[C@@H](CCC(=O)O)C(=O)N[C@@H](Cc1c[nH]c2ccccc12)C(=O)N[C@@H](CC(C)C)C(=O)N[C@@H](CC(C)C)C(=O)N[C@@H](CO)C(=O)N[C@@H](C)C(N)=O)[C@@H](C)CC)C(=O)O [Compound 7] (HELM PEPTIDE1{H.S.Q.G.T.F.T.S.D.Y.S.R.Y.L.D.E.K.R.A.R.D.F.I.E.W.L.L.S.A.[am]}|PEPTIDE2{[CCCCCCCCCCCCCCCC(=O)[*:2]].[gGlu]}$PEPTIDE1,PEPTIDE2,17:R3-2:R2$$$V2.0)
	0.09 nM	CCCCCCCCCCCCCCCC(=O)N[C@@H](CCC(=O)NCCCC[C@H](NC(=O)[C@H](CCC(=O)O)NC(=O)[C@H](CC(=O)O)NC(=O)[C@H](CC(C)C)NC(=O)[C@H](Cc1ccc(O)cc1)NC(=O)[C@H](CCCNC(=N)N)NC(=O)[C@H](CO)NC(=O)[C@H](Cc1ccc(O)cc1)NC(=O)[C@H](CC(=O)O)NC(=O)[C@H](CO)NC(=O)[C@@H](NC(=O)[C@H](Cc1ccccc1)NC(=O)[C@@H](NC(=O)CNC(=O)[C@H](Cc1c[nH]cn1)NC(=O)[C@@H](CO)NC(=O)[C@@H](N)Cc1c[nH]cn1)[C@@H](C)O)[C@@H](C)O)C(=O)N[C@@H](CCCNC(=N)N)C(=O)N[C@@H](C)C(=O)N[C@@H](CCCNC(=N)N)C(=O)N[C@@H](CC(=O)O)C(=O)N[C@@H](Cc1ccccc1)C(=O)N[C@H](C(=O)N[C@@H](CCC(=O)O)C(=O)N[C@@H](Cc1c[nH]c2ccccc12)C(=O)N[C@@H](CC(C)C)C(=O)N[C@@H](CC(C)C)C(=O)N[C@@H](CO)C(=O)N[C@@H](C)C(N)=O)[C@@H](C)CC)C(=O)O [Compound 11] (HELM PEPTIDE1{H.[dS].H.G.T.F.T.S.D.Y.S.R.Y.L.D.E.K.R.A.R.D.F.I.E.W.L.L.S.A.[am]}|PEPTIDE2{[CCCCCCCCCCCCCCCC(=O)[*:2]].[gGlu]}$PEPTIDE1,PEPTIDE2,17:R3-2:R2$$$V2.0)
	0.09 nM	CCCCCCCCCCCCCCCC(=O)N[C@@H](CCC(=O)NCCCC[C@H](NC(=O)[C@H](CCC(=O)O)NC(=O)[C@H](CC(=O)O)NC(=O)[C@H](CC(C)C)NC(=O)[C@H](Cc1ccc(O)cc1)NC(=O)[C@H](CCCCN)NC(=O)[C@H](CO)NC(=O)[C@H](Cc1ccc(O)cc1)NC(=O)[C@H](CC(=O)O)NC(=O)[C@H](CO)NC(=O)[C@@H](NC(=O)[C@H](Cc1ccccc1)NC(=O)[C@@H](NC(=O)CNC(=O)[C@H](Cc1c[nH]cn1)NC(=O)[C@H](CO)NC(=O)[C@@H](N)Cc1c[nH]cn1)[C@@H](C)O)[C@@H](C)O)C(=O)N[C@@H](CCCNC(=N)N)C(=O)N[C@@H](C)C(=O)N[C@@H](CCCCN)C(=O)N[C@@H](CC(=O)O)C(=O)N[C@@H](Cc1ccccc1)C(=O)N[C@H](C(=O)N[C@@H](CCC(=O)O)C(=O)N[C@@H](Cc1c[nH]c2ccccc12)C(=O)N[C@@H](CC(C)C)C(=O)N[C@@H](CC(C)C)C(=O)N[C@@H](CO)C(=O)N[C@@H](C)C(N)=O)[C@@H](C)CC)C(=O)O [Compound 18] (HELM PEPTIDE1{H.S.H.G.T.F.T.S.D.Y.S.K.Y.L.D.E.K.R.A.K.D.F.I.E.W.L.L.S.A.[am]}|PEPTIDE2{[CCCCCCCCCCCCCCCC(=O)[*:2]].[gGlu]}$PEPTIDE1,PEPTIDE2,17:R3-2:R2$$$V2.0)
